In the supplement of paper PMC5908809:

Legend:
[1] = test system: normal NK cells expanded with K562-aAPC; assay: percent inhibition of viability; higher = more inhibition; details: 72 h, IL-2 2.5 ng/mL
Method: (§1)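 Drug sensitivity and resistance testing on K562-aAPC-expanded normal NK cells: 5 concentrations (10-fold steps over a 10,000-fold range), 72 h at 37 °C, viability by CellTiter-Glo normalised to DMSO and benzethonium chloride controls; DSS from the fitted curve.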

SNK-6 (IL-2 2.5 ng/mL) [2] = assay: drug sensitivity score (DSS) (DSS units); higher = more sensitive; extreme values may be limits of the assay; details: 72 h
YT (IL-2 2.5 ng/mL) [3] = assay: as above; details: 72 h
KAI3 (IL-2 2.5 ng/mL) [4] = assay: as above; details: 72 h
NK-92 (IL-2 2.5 ng/mL) [5] = assay: as above; details: 72 h
IMC-1 (IL-2 20 ng/mL) [6] = assay: as above; details: 72 h
NKL (IL-2 2.5 ng/mL) [7] = assay: as above; details: 72 h
[8] = test system: normal primary NK cells, pool 2 (3 donors) (IL-2 2.5 ng/mL); assay: as above; details: 72 h
[9] = test system: normal primary NK cells, pool 3 (3 donors) (IL-2 2.5 ng/mL); assay: as above; details: 72 h
[10] = test system: normal primary NK cells, pool 1 (3 donors) (IL-2 2.5 ng/mL); assay: as above; details: 72 h
[11] = test system: normal primary NK cells, pool 1 (3 donors), resting (IL-2 0 ng/mL); assay: as above; details: 72 h
KHYG-1 (IL-2 2.5 ng/mL) [12] = assay: as above; details: 72 h
NK-YS (IL-2 2.5 ng/mL) [13] = assay: as above; details: 72 h
DERL-7 (IL-2 2.5 ng/mL) [14] = assay: as above; details: 72 h
[15] = test system: normal NK cells expanded with K562-aAPC; assay: as above; details: 72 h; IL-2 2.5 ng/mL
Method: as §1

SNK-6 (IL-2 2.5 ng/mL) [16] = assay: percent inhibition of viability; higher = more inhibition; details: 72 h
YT (IL-2 2.5 ng/mL) [17] = assay: as above; details: 72 h
KAI3 (IL-2 2.5 ng/mL) [18] = assay: as above; details: 72 h
NK-92 (IL-2 2.5 ng/mL) [19] = assay: as above; details: 72 h
IMC-1 (IL-2 20 ng/mL) [20] = assay: as above; details: 72 h
NKL (IL-2 2.5 ng/mL) [21] = assay: as above; details: 72 h
[22] = test system: normal primary NK cells, pool 2 (3 donors) (IL-2 2.5 ng/mL); assay: as above; details: 72 h
[23] = test system: normal primary NK cells, pool 3 (3 donors) (IL-2 2.5 ng/mL); assay: as above; details: 72 h
[24] = test system: normal primary NK cells, pool 1 (3 donors) (IL-2 2.5 ng/mL); assay: as above; details: 72 h
[25] = test system: normal primary NK cells, pool 1 (3 donors), resting (IL-2 0 ng/mL); assay: as above; details: 72 h
KHYG-1 (IL-2 2.5 ng/mL) [26] = assay: as above; details: 72 h
NK-YS (IL-2 2.5 ng/mL) [27] = assay: as above; details: 72 h
DERL-7 (IL-2 2.5 ng/mL) [28] = assay: as above; details: 72 h

COc1cc(C(=O)NC2CCN(C)CC2)c(F)cc1Nc1ncc2c(n1)N(C1CCCC1)CC(F)(F)C(=O)N2C [TAK-960] (max concentration tested 2500 nM)
percent inhibition of viability [%]
Details	0.25 nM	2.5 nM	25 nM	250 nM	2500 nM
DERL-7 (IL-2 2.5 ng/mL) [28]	-1.39	-5.61	-0.81	-6.15	-11.4
IMC-1 (IL-2 20 ng/mL) [20]	-4.4	4.01	9.33	8.23	11.8
KAI3 (IL-2 2.5 ng/mL) [18]	-8.99	-1.96	-2.51	-1.54	2.64
KHYG-1 (IL-2 2.5 ng/mL) [26]	0.04	3.31	3.4	2.48	6.51
NK-92 (IL-2 2.5 ng/mL) [19]	-8.09	-7.71	9.2	-1.64	15.2
NK-YS (IL-2 2.5 ng/mL) [27]	-3.49	1.57	0.97	0.32	6.84
NKL (IL-2 2.5 ng/mL) [21]	-17.8	-2.17	0.04	4.31	2.51
SNK-6 (IL-2 2.5 ng/mL) [16]	22.6	22	36.4	38	22.1
YT (IL-2 2.5 ng/mL) [17]	1.09	0.71	8.79	0.43	6.32
[1]	-3.09	0.01	0.41	9.42	8.37
[22]	-10.9	-4.09	10.7	0.25	13.6
[23]	-10.9	-5.87	7.99	-6.67	-0.88
[24]	7.7	-2.83	-1.46	-9	3.2
[25]	11.1	-6.28	-3.33	-13.8	-6.51

Details	drug sensitivity score
DERL-7 (IL-2 2.5 ng/mL) [14]	0.89
IMC-1 (IL-2 20 ng/mL) [6]	0.63
KAI3 (IL-2 2.5 ng/mL) [4]	0
KHYG-1 (IL-2 2.5 ng/mL) [12]	0
NK-92 (IL-2 2.5 ng/mL) [5]	0.18
NK-YS (IL-2 2.5 ng/mL) [13]	0
NKL (IL-2 2.5 ng/mL) [7]	0
SNK-6 (IL-2 2.5 ng/mL) [2]	13
YT (IL-2 2.5 ng/mL) [3]	0
[8]	0.16
[9]	0
[10]	0
[11]	0
[15]	0

Nc1nc(NC2CC2)cc(-c2cccc(Cl)c2Cl)n1 [TH588] (max concentration tested 25000 nM)
percent inhibition of viability [%]
Details	2.5 nM	25 nM	250 nM	2500 nM	25000 nM
DERL-7 (IL-2 2.5 ng/mL) [28]	-0.31	1.28	1.11	0.06	97.7
IMC-1 (IL-2 20 ng/mL) [20]	-9.26	1.24	2.13	7.29	96.8
KAI3 (IL-2 2.5 ng/mL) [18]	0.95	-6.22	2.89	42	64.7
KHYG-1 (IL-2 2.5 ng/mL) [26]	-2.9	-3.16	5.7	58.7	107
NK-92 (IL-2 2.5 ng/mL) [19]	-1.92	-6.94	2.79	72.5	101
NK-YS (IL-2 2.5 ng/mL) [27]	1.83	-0.35	11.3	66.7	80.4
NKL (IL-2 2.5 ng/mL) [21]	-9.98	-13.7	2.66	55.4	98.6
SNK-6 (IL-2 2.5 ng/mL) [16]	0.31	-17.3	9.99	71.7	81.9
YT (IL-2 2.5 ng/mL) [17]	-5.04	-2.09	4.62	56.5	101
[1]	-9.36	-5.78	-3.43	4.8	54.4
[22]	-12	6.63	10.1	10.4	25.7
[23]	-2.82	4	7.93	2.77	13.5
[24]	-0.99	16	3.84	5.63	25.9
[25]	-2.99	16.5	4.87	14.2	27.3

Details	drug sensitivity score
DERL-7 (IL-2 2.5 ng/mL) [14]	5.47
IMC-1 (IL-2 20 ng/mL) [6]	6.5
KAI3 (IL-2 2.5 ng/mL) [4]	8.66
KHYG-1 (IL-2 2.5 ng/mL) [12]	12.6
NK-92 (IL-2 2.5 ng/mL) [5]	14.2
NK-YS (IL-2 2.5 ng/mL) [13]	13.8
NKL (IL-2 2.5 ng/mL) [7]	12.1
SNK-6 (IL-2 2.5 ng/mL) [2]	14.5
YT (IL-2 2.5 ng/mL) [3]	12.3
[8]	2.06
[9]	0.02
[10]	1.81
[11]	2.68
[15]	3.67
